According to PMC13052075, “Synthesis of 1,2,3,4‐Tetrahydroisoquinoline‐3‐Carboxylic Acid‐Embedded Decapeptides: In Silico Studies and In Vitro Evaluation Against Breast Cancer” (ChemistryOpen, 2025):
Blank lines part the entries; values can stand above or below the molecule they belong to. Non-standard residues stand in square brackets, D forms with d. Residues, ends and D or L forms follow the SMILES beside them. Tic = O=C(O)[C@@H]1Cc2ccccc2CN1

System: MCF‐7 human breast cancer cell line
Experiment: cells
Settings: for IC50: 24 h
Description: Using GraphPad Prism software, the IC50 values were determined (Figure 8). After conducting the MTT assay, the absorbance data was entered into the software to generate dose–response curves. The nonlinear regression analysis function, specifically log(inhibitor) verus normalized response was employed to calculate the IC50 values for each compound. This method allowed for accurate determination of the concentration required to inhibit 50% of cell viability.
The MTT assay (3‐[4,5‐dimethylthiazol‐2‐yl]‐2,5‐diphenyltetrazolium bromide) was employed to evaluate the anticancer potential of the synthesized compounds against the MCF‐7 human breast cancer cell line. MCF‐7 cells were seeded into a 96‐well plate at a density of 1 × 10^4 cells per well and allowed to adhere for 24 h. Subsequently, the cells were treated with the test compounds at concentrations of 0.1, 1, 2, 5, and 10 µM, prepared in plain Dulbecco's Modified Eagle Medium (DMEM) media. After 24 h of incubation, MTT solution (100 µg per well; Sigma‐Aldrich) was added, and the plates were incubated for an additional 3–4 h to allow the formation of formazan crystals. The resulting formazan was dissolved in DMSO, and absorbance was measured at 570 nm using a microplate reader.

IC50: 6.1 µM
SMILES: CC(C)C[C@H](NC(=O)[C@H](Cc1c[nH]c2ccccc12)NC(=O)[C@H](CO)NC(=O)[C@H](CCC(=O)O)NC(=O)[C@@H]1Cc2ccccc2CN1C(=O)[C@H](Cc1c[nH]cn1)NC(=O)[C@H](CCCNC(=N)N)NC(=O)[C@H](CCCCN)NC(=O)[C@H](CS)NC(=O)[C@@H](N)CCCNC(=N)N)C(=O)O [DEC‐2] (H-RCKRH[Tic]ESWL-OH)

IC50: 3.38 µM
SMILES: CC(C)C[C@H](NC(=O)[C@H](Cc1c[nH]c2ccccc12)NC(=O)[C@H](CO)NC(=O)[C@H](CCC(=O)O)NC(=O)[C@@H]1Cc2ccccc2CN1C(=O)[C@H](CCCCN)NC(=O)[C@H](Cc1c[nH]cn1)NC(=O)[C@H](CCCNC(=N)N)NC(=O)CNC(=O)[C@@H](N)Cc1c[nH]cn1)C(=O)O [DEC‐1] (H-HGRHK[Tic]ESWL-OH)

SMILES: CC/C(=C(\c1ccccc1)c1ccc(OCCN(C)C)cc1)c1ccccc1 [Tamoxifen, tamoxifen]
inhibition at 0.1 µM (Homo sapiens, MCF7, 24 h, read-out: % Inhibition 0.1 µM): 14.1 ± 5.41%
inhibition at 1 µM (Homo sapiens, MCF7, 24 h, read-out: % Inhibition 1 µM): 29.6 ± 10.4%
inhibition at 2 µM (Homo sapiens, MCF7, 24 h, read-out: % Inhibition 2 µM): 38.2 ± 2.76%
inhibition at 5 µM (Homo sapiens, MCF7, 24 h, read-out: % Inhibition 5 µM): 57.2 ± 5.99%
inhibition at 10 µM (Homo sapiens, MCF7, 24 h, read-out: % Inhibition 10 µM): 92.21 ± 0.73%

IC50: 4.49 µM
SMILES: CC(C)C[C@H](NC(=O)[C@H](Cc1c[nH]c2ccccc12)NC(=O)[C@H](CO)NC(=O)[C@H](CCC(=O)O)NC(=O)[C@@H]1Cc2ccccc2CN1C(=O)[C@H](Cc1c[nH]cn1)NC(=O)[C@H](CCCCN)NC(=O)[C@H](CCCNC(=N)N)NC(=O)[C@H](CS)NC(=O)[C@@H](N)CCCCN)C(=O)O [DEC‐3] (H-KCRKH[Tic]ESWL-OH)
